Activity and solubility data for 4 compounds are collected here from ChEMBL document CHEMBL4602656, “Synthesis and evaluation of 4-(1,3,4-oxadiazol-2-yl)-benzenesulfonamides as potent carbonic anhydrase inhibitors” (Bioorg Med Chem Lett, 2020).

In one data set the test system is Mus musculus. Description: Anti-hypoxia in mouse assessed as increase in mouse survival at 400 mg/kg, po administered for 3 days and observed upto day 3 after dosing of 1.5 hrs. It is filed as functional, organism-based.
The test system of a further data set is HEK-293T. Kind of data set: Cytotoxicity against human HEK293T cells assessed as reduction in cell viability at 5 to 200 uM incubated for 48 hrs by MTS assay. It is filed as cell-based.
Data set [1] is described as follows: Solubility of compound. It is filed as physicochemical.

Activity calls are given as the source filed them. The calls are words filed in the database; no cut-off is given here.

As to `CC(=O)Nc1nnc(S(N)(=O)=O)s1` [ACETAZOLAMIDE], the result in the data set with Mus musculus was Active. Also, the Activity result with HEK-293T is “Non-Toxic”.
As to `NS(=O)(=O)c1ccc(-c2nnc(-c3cccc(Cl)c3Cl)o2)cc1`, the Activity entry in the data set on HEK-293T is listed as “Non-Toxic”. The solubility result in data set [1] is “Insoluble”.
In the case of `Cc1ccc(-c2nnc(-c3ccc(S(N)(=O)=O)cc3)o2)c(C)c1`, the Activity result with HEK-293T was “Non-Toxic”. The solubility result in data set [1] is recorded as “Insoluble”.
Turning to `CN(C)c1ccc(-c2nnc(-c3ccc(S(N)(=O)=O)cc3)o2)cc1.CS(=O)(=O)O`, the result in the data set on Mus musculus was Active. Besides, the Activity result in the data set on HEK-293T is on record as “Non-Toxic”.
